From US20250186627A1, “RADIOLABELED COMPOUNDS TARGETING THE PROSTATE-SPECIFIC MEMBRANE ANTIGEN” (PROVINCIAL HEALTH SERVICES AUTHORITY, priority 2022, published 2025)
*1 amine or outer side, *2 acyl side, *3 side chain or, on linkers, in order; H or OH if unused. Where a SMILES comes first, the peptide text is derived from it. [ ]: non-standard residue; d: D form. The star is where a group is joined. ξ: configuration not given here. ξLys(Nα-CO-ξAad) = O=C(O)CCCC(NC(=O)NC(CCCCN*)C(=O)O)C(=O)O; Butanoyl(4-(4-NO2Ph)) = O=C(CCCc1ccc([N+](=O)[O-])cc1)*; DOTA = O=C(O)CN1CCN(CC(=O)O)CCN(CC(=O)*)CCN(CC(=O)O)CC1; ξAla(9-anthryl) = NC(Cc1c2ccccc2cc2ccccc12)C(=O)O; X1 = O=C(C1CCC(CN[*:1])CC1)[*:2]; ξK = NCCCCC(N)C(=O)O

Test system: NRG-mice bearing LNCaP tumors
Assay: Biodistribution (and PET/SPECT imaging) in NRG-mice bearing LNCaP tumors
Assay type: in vivo
Settings: Avg
Method in brief: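 LNCaP xenografts (~10 million cells, left dorsal flank) grown 4-6 weeks to 200-600 mm^3 in NRG mice. Tail-vein injection of 4-6 MBq ^68Ga or 18.5 MBq ^177Lu tracer under isoflurane; CT then 10-min static PET or 1-h SPECT. Biodistribution by gamma counting of weighed organs, expressed as %ID/g.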

O=C([O-])CN1CCN(CC(=O)[O-])CCN(CC(=O)NCCCCC(NC(=O)CNC(=O)CCCc2ccc([N+](=O)[O-])cc2)C(=O)NCC(=O)NCC2CCC(C(=O)NC(Cc3c4ccccc4cc4ccccc34)C(=O)NCCCCC(NC(=O)NC(CCCC(=O)O)C(=O)O)C(=O)O)CC2)CCN(CC(=O)[O-])CC1.[225Ac+3] (stereo not drawn) [^225Ac-CCZ02017] ({Butanoyl(4-(4-NO2Ph))}-G[ξK](DOTA)G[X1][ξAla(9-anthryl)]-{ξLys(Nα-CO-ξAad)})
Biodistribution: Adrenal gland (3 h p.i.): 3.61 % ID/g
Biodistribution: Blood (3 h p.i.): 9.83 % ID/g
Biodistribution: Bone (3 h p.i.): 1.24 % ID/g
Biodistribution: Brain (3 h p.i.): 0.19 % ID/g
Biodistribution: Fat (3 h p.i.): 1.96 % ID/g
Biodistribution: Heart (3 h p.i.): 2.27 % ID/g
Biodistribution: Intestine (3 h p.i.): 1.02 % ID/g
Biodistribution: LNCaP tumor (3 h p.i.): 23.63 % ID/g
Biodistribution: Lacrimal gland (3 h p.i.): 0.92 % ID/g
Biodistribution: Liver (3 h p.i.): 1.90 % ID/g
Biodistribution: Lungs (3 h p.i.): 4.93 % ID/g
Biodistribution: Muscle (3 h p.i.): 0.80 % ID/g
Biodistribution: Pancreas (3 h p.i.): 1.14 % ID/g
Biodistribution: Salivary gland (3 h p.i.): 3.37 % ID/g
Biodistribution: Seminal gland (3 h p.i.): 2.26 % ID/g
Biodistribution: Spleen (3 h p.i.): 1.15 % ID/g
Biodistribution: Stomach (3 h p.i.): 0.47 % ID/g
Biodistribution: Testes (3 h p.i.): 2.73 % ID/g
Biodistribution: Thyroid (3 h p.i.): 1.72 % ID/g
Biodistribution: Urine (3 h p.i.): 142.80 % ID/g
Biodistribution: kidney (3 h p.i.): 14.29 % ID/g
Biodistribution: Adrenal gland (24 h p.i.): 0.59 % ID/g
Biodistribution: Blood (24 h p.i.): 0.28 % ID/g
Biodistribution: Bone (24 h p.i.): 0.30 % ID/g
Biodistribution: Brain (24 h p.i.): 0.03 % ID/g
Biodistribution: Fat (24 h p.i.): 0.13 % ID/g
Biodistribution: Heart (24 h p.i.): 0.25 % ID/g
Biodistribution: Intestine (24 h p.i.): 0.15 % ID/g
Biodistribution: LNCaP tumor (24 h p.i.): 42.31 % ID/g
Biodistribution: Lacrimal gland (24 h p.i.): 0.32 % ID/g
Biodistribution: Liver (24 h p.i.): 0.68 % ID/g
Biodistribution: Lungs (24 h p.i.): 0.58 % ID/g
Biodistribution: Muscle (24 h p.i.): 0.06 % ID/g
Biodistribution: Pancreas (24 h p.i.): 0.09 % ID/g
Biodistribution: Salivary gland (24 h p.i.): 0.35 % ID/g
Biodistribution: Seminal gland (24 h p.i.): 0.15 % ID/g
Biodistribution: Spleen (24 h p.i.): 0.50 % ID/g
Biodistribution: Stomach (24 h p.i.): 0.20 % ID/g
Biodistribution: Testes (24 h p.i.): 0.38 % ID/g
Biodistribution: Thyroid (24 h p.i.): 0.33 % ID/g
Biodistribution: Urine (24 h p.i.): 4.30 % ID/g
Biodistribution: kidney (24 h p.i.): 6.87 % ID/g
Biodistribution: Adrenal gland (72 h p.i.): 24.11 % ID/g
Biodistribution: Blood (72 h p.i.): 0.01 % ID/g
Biodistribution: Bone (72 h p.i.): 0.34 % ID/g
Biodistribution: Brain (72 h p.i.): 0.02 % ID/g
Biodistribution: Fat (72 h p.i.): 0.40 % ID/g
Biodistribution: Heart (72 h p.i.): 0.16 % ID/g
Biodistribution: Intestine (72 h p.i.): 0.06 % ID/g
Biodistribution: LNCaP tumor (72 h p.i.): 54.12 % ID/g
Biodistribution: Lacrimal gland (72 h p.i.): 1.39 % ID/g
Biodistribution: Liver (72 h p.i.): 0.51 % ID/g
Biodistribution: Lungs (72 h p.i.): 0.19 % ID/g
Biodistribution: Muscle (72 h p.i.): 0.04 % ID/g
Biodistribution: Pancreas (72 h p.i.): 0.09 % ID/g
Biodistribution: Salivary gland (72 h p.i.): 0.33 % ID/g
Biodistribution: Seminal gland (72 h p.i.): 0.03 % ID/g
Biodistribution: Spleen (72 h p.i.): 0.93 % ID/g
Biodistribution: Stomach (72 h p.i.): 0.06 % ID/g
Biodistribution: Testes (72 h p.i.): 0.33 % ID/g
Biodistribution: Thyroid (72 h p.i.): 0.22 % ID/g
Biodistribution: Urine (72 h p.i.): 1.33 % ID/g
Biodistribution: kidney (72 h p.i.): 3.62 % ID/g
Biodistribution: Adrenal gland (144 h p.i.): 0.31 % ID/g
Biodistribution: Blood (144 h p.i.): 0.01 % ID/g
Biodistribution: Bone (144 h p.i.): 0.23 % ID/g
Biodistribution: Brain (144 h p.i.): 0.02 % ID/g
Biodistribution: Fat (144 h p.i.): 0.07 % ID/g
Biodistribution: Heart (144 h p.i.): 0.14 % ID/g
Biodistribution: Intestine (144 h p.i.): 0.06 % ID/g
Biodistribution: LNCaP tumor (144 h p.i.): 71.25 % ID/g
Biodistribution: Lacrimal gland (144 h p.i.): 0.65 % ID/g
Biodistribution: Liver (144 h p.i.): 0.71 % ID/g
Biodistribution: Lungs (144 h p.i.): 0.13 % ID/g
Biodistribution: Muscle (144 h p.i.): 0.02 % ID/g
Biodistribution: Pancreas (144 h p.i.): 0.14 % ID/g
Biodistribution: Salivary gland (144 h p.i.): 0.21 % ID/g
Biodistribution: Seminal gland (144 h p.i.): 0.04 % ID/g
Biodistribution: Spleen (144 h p.i.): 0.65 % ID/g
Biodistribution: Stomach (144 h p.i.): 0.05 % ID/g
Biodistribution: Testes (144 h p.i.): 0.29 % ID/g
Biodistribution: Thyroid (144 h p.i.): 0.23 % ID/g
Biodistribution: Urine (144 h p.i.): 0.55 % ID/g
Biodistribution: kidney (144 h p.i.): 1.95 % ID/g
Biodistribution: Adrenal gland (240 h p.i.): 0.53 % ID/g
Biodistribution: Blood (240 h p.i.): 0.02 % ID/g
Biodistribution: Bone (240 h p.i.): 0.57 % ID/g
Biodistribution: Brain (240 h p.i.): 0.02 % ID/g
Biodistribution: Fat (240 h p.i.): 0.13 % ID/g
Biodistribution: Heart (240 h p.i.): 0.16 % ID/g
Biodistribution: Intestine (240 h p.i.): 0.06 % ID/g
Biodistribution: LNCaP tumor (240 h p.i.): 123.67 % ID/g
Biodistribution: Lacrimal gland (240 h p.i.): 0.19 % ID/g
Biodistribution: Liver (240 h p.i.): 1.49 % ID/g
Biodistribution: Lungs (240 h p.i.): 0.18 % ID/g
Biodistribution: Muscle (240 h p.i.): 0.08 % ID/g
Biodistribution: Pancreas (240 h p.i.): 0.06 % ID/g
Biodistribution: Salivary gland (240 h p.i.): 0.32 % ID/g
Biodistribution: Seminal gland (240 h p.i.): 0.06 % ID/g
Biodistribution: Spleen (240 h p.i.): 1.14 % ID/g
Biodistribution: Stomach (240 h p.i.): 0.08 % ID/g
Biodistribution: Testes (240 h p.i.): 0.27 % ID/g
Biodistribution: Thyroid (240 h p.i.): 0.23 % ID/g
Biodistribution: Urine (240 h p.i.): 0.41 % ID/g
Biodistribution: kidney (240 h p.i.): 2.24 % ID/g
